For data set [1] the following is noted: in man, cited from earlier work.
Data set [2] concerns HCT116, A549 and NCIH460 murine xenografts. As to conditions: cited from earlier work.
For data set [3], the target named is T1, Plk1-Flag-His6 tag fusion enzyme (Human Plk1) (Homo sapiens, UniProt P53350).
T1 construct: made in house; host or cells: Sf9 insect cells (baculovirus, pFastBac vector); substrate in E. coli BL21 (pGEX-2T)
Description: Plk1 Inhibition Assay (33P-ATP filter plate kinase reaction, GST-Cdc25C(1-206) substrate). It is filed as biochemical. As to conditions: 5.0 μM ATP, RT 60 min; MSR 3.6; racemate; read-out: Plk1 IC50 (absolute IC50). From the text:
Human Plk1 cDNA may be directly linked at one of its termini with a polynucleotide sequence expressing a His6 tag, such as the C-terminal FLAG-His6 tag, and inserted into an appropriate expression vector, such as a pFastBac™ vector (Invitrogen) and transfected into an appropriate system, such as baculovirus similar to what has been reported by Yue-Wei Qian, et al., Science, 282, 1701 (1998) for xPlk1. If a viral expression system is used, then the virus (e.g., baculovirus bearing a Plk1-Flag-His6 tag polynucleotide construct) is infected into a culture of a suitable host cell, such as Sf9 cells. […]
Plk1 kinase reactions contain Plk1-Flag-His6 tag fusion enzyme (0.2 ng/μL) in a buffer containing 50 mM HEPES, pH 7.3, 1.0 mM dithiothreitol, 5.0 μM ATP, 10 mM MgCl2, 0.01% TRITON® X-100, 0.4 μCi ^33P-ATP, and 0.06 μg/μL GST-Cdc25c (1-206) peptide. […] Wells are dried before addition of 40 μL of MicroScintTM20 (Packard) and then counted on a Wallac MICROBETA® Jet. The percentage inhibition values from the 10-point concentration response data are subsequently analyzed, for example, using ACTIVITY BASE™ software (IDBS), using a 4-parameter logistic equation. Absolute IC50 values are calculated from the resulting curve fit.

Another data set has as its system HeLa Cells. In words: pHH3(S10), Mitotic Cells, and DNA Content Assays. The class given is cell-based. As to conditions: Homo sapiens, 23 hours exposure. The method, then: HeLa Cells are plated at 200 cells/well in 96 well […] Dickinson BIOCOAT™ plates, and are incubated in MEM (Minimum Essential Medium) with 10% FBS (Fetal Bovine Serum) in 37° C., 5% CO2 for 24 hours. Cells are treated by adding compound (in 0.25% DMSO) to the medium, dosing at 10 points across the range […] to 0.0098 μM. After 23 hours exposure to the compounds, cells are fixed, for example with the PREFER™ fixative for 30 min then are permeabilized with 0.1% TRITON® X100 in phosphate buffered saline (PBS) solution for 15 min. Cells are washed 3 times with PBS then digested with 50 μg/mL RNAse. Primary antibody, phosphohistone H3, is added at 1:500 in PBS with 1% bovine serum albumin (BSA) to the cells over night at 4° C. After 3 PBS washes, cells are incubated with Alexa488 labeled secondary antibody for 1 hour at RT. Again they are washed 3 times with PBS, and then 15 μM propidium iodide is added for 30 min to stain nuclei. Fluorescence Plates are scanned with ACUMEN EXPLORER™ [Laser-scanning fluorescence microplate cytometer (comprising of 488 nm argon ion laser excitation and multiple photomultiplier tube detection), manufactured by TTP LABTECH LTD] to measure anti-phosphohistone H3 Serine 10, DNA content and mitotic cells as measured by DNA condensation. Image analysis are based on cellular fluorescent signals for identifying cells in different subpopulations. pHH3(S10) positive cells are identified by mean intensity at 500-530 nm above the threshold. Total intensity at 655-705 nm from propidium iodide/DNA is used to identify individual cells (cells with DNA content from 2N to 4N) and subpopulations in cell cycle (2N cells, 4N cells). Peak intensity at 575-640 nm is used to identify DNA condensation that is used as the marker to identify mitotic cells among 4N cells. Assay outputs are percentage of each identified subpopulations, % pHH3, % 2N, % 4N, % mitotic and total cell number. The EC50 is determined by curve fitting to a four parameter logistic for each output using ACTIVITY BASE™.

The subject of a further data set is HCT116 cells. Description: Antiproliferative Assay (Alamar Blue). The class given is cell-based. As to conditions: Homo sapiens, HCT-116, e.g. 72 hours exposure, n=2, MSR 3.1, racemate, read-out: average IC50 (cell proliferation). Here is the method:
The effects of compounds on cell proliferation can be determined using cells and cell proliferation methods well-known in the art (Robert C. Squatrito et al., Gynecological Oncology, 58, 101-105, (1995)). For example, HCT116 cells, which may be obtained from the American Type Culture Collection, may be seeded at ˜2000 cells/well in 96-well plates and allowed to attach overnight in a humidified CO2 incubator at 37° C. Following the 20-24 hour incubation, half-log serially diluted compounds are added and the plates are returned to the incubator. After an appropriate length of exposure (e.g., 72 hours), cell proliferation is estimated using well-known methods. In one method, 10 μL of a tetrazolium salt, such as Alamar Blue™ is added to the cell plates. After an appropriate exposure to the dye, fluorescence (530 nm excitation, 580 nm emission) is determined.
Background: The colour change of resazurin is a common sign of viable cells or microbes.

Where two headings read alike, the source gives them in different places.

T1 sequence (P53350 whole entry, the tested form may be a part): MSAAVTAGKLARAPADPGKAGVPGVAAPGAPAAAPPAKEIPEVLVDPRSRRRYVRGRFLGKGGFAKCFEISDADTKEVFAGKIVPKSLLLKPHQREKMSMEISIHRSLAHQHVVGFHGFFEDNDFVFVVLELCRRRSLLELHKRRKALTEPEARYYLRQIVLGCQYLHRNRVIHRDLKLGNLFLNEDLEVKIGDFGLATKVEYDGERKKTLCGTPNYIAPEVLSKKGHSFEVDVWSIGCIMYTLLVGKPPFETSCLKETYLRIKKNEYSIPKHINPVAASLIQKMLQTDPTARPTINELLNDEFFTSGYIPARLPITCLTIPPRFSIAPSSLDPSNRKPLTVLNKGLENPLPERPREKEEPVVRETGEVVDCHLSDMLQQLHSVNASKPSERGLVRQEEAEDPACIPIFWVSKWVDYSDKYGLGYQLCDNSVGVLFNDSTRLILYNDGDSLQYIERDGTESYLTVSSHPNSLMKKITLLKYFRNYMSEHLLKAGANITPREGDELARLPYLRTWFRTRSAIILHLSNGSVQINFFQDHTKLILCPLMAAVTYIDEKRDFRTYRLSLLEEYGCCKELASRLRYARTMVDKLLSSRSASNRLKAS

Regarding `CC[C@@H]1C(=O)N(C)c2cnc(Nc3ccc(C(=O)NC4CCN(C)CC4)cc3OC)nc2N1C1CCCC1` [BI-2536], the dose-limiting toxicity result in data set [1] (phase II clinical trials) is reported as “dose limited by myelosupression”. For the same compound, the “clearance (CL)” value in data set [1] is recorded as > 1000 mL/min. Moreover, in data set [2], the “activity in preclinical xenograft models” value is given as “demonstrated activity”.
Regarding `CC(N)c1cnc(F)cc1-c1cccc2cc(-c3nc(NCCn4ccnn4)ncc3F)sc12` (racemic) [Example 41, N-(2-(1H-1,2,3-Triazol-1-yl)ethyl)-4-(7-(5-(1-aminoethyl)-2-fluoropyridin-4-yl)benzo[b]thiophen-2-yl)-5-fluoropyrimidin-2-amine], the IC50 is 12 nM in data set [3] and 31 nM in the data set on HCT116 cells. For the same compound, the EC50 (commonly the concentration at which the effect is half-maximal) with HeLa Cells (MSR 2.4, racemate, read-out: DNA content EC50) was 30 nM; in the data set on HeLa Cells (MSR 2.5, racemate, read-out: mitotic EC50) it was 23 nM; in the data set with HeLa Cells (MSR 2.6, racemate, read-out: pHH3(s10) EC50) it was 25 nM.
